# Values of other authors as cited in US20260083654A1, “PHOTOPROTECTIVE SYSTEM CONSISTING OF 4 SUNSCREENS” (PIERRE FABRE DERMO-COSMETIQUE, priority 2019, published 2026).
# Where “and” joins values, the source holds several entries; their conditions need not be identical. Identical values can stand only once.
# Conditions: two peaks, broad spectrum filter
smiles,measurement,value
"CCCCC(CC)COc1ccc(-c2nc(-c3ccc(OC)cc3)nc(-c3ccc(OCC(CC)CCCC)cc3O)n2)c(O)c1 (stereo not shown) [BEMT, 2,4-bis[4-(2-ethylhexyloxy)-2-hydroxyphenyl]-6-(4-methoxyphenyl)-1,3,5-triazine]",absorption peaks,310 nm and 340 nm
